Results on one molecule are retold here after patent US20160158317A1, “Antimicrobial Peptide Variants and Polynucleotides Encoding Same” (Adenium Biotech A/S, priority 2010, published 2016).

Values joined by “and” are separate entries in the source; they are usually repeats but may differ in a detail not shown here. Equal entries are not always repeated. Marks after values point to notes of the source that are not given here.

This test has as its system Escherichia coli AID#172. The experiment in a line: Peritonitis/sepsis model in neutropenic NMRI mice, effect over time of 7.5 mg/kg (Example 3). Format: in vivo. More on the design: key to Score T = 0 hour / Score T = 5 hours / Score T = 2 hours: Score 0: Healthy.; Score 1: Minor clinical signs of infection and inflammation e.g. observations of minor signs of distress or changed activity.; Score 2: Clear signs of infection like, social withdrawal, lack of curiosity, changed body position, piloerection, or changes in pattern of movement.; Score 3: Severe signs of infection like stiff movements, lack of curiosity, changed body position, piloerection, pain, or changes in pattern of movement.; Score 4: Severe pain and the mouse was sacrificed immediately to minimize the suffering of the animal.; Score 5: The mouse was dead. To be noted: for CFU levels compared to vehicle: peritoneal fluid at 2 and 5 hours, blood at 5 hours, p<0.01; for difference in CFU levels compared to vehicle treatment, blood / difference in CFU levels compared to vehicle treatment, peritoneum: single i.v. dose (NZ17074 7.5 mg/kg, Meropenem 40 mg/kg); for Score T = 0 hour: score at start of treatment; for log10 CFU Mean Blood / log10 CFU mean PF: group mean; for log10 CFU mean PF / log10 CFU PF: peritoneal fluid. The method, then:
The purpose of this study was to investigate the in vivo efficacy of NZ17074 following intravenous (i.v.) administration of a single dose of 7.5 mg/kg. The effect was tested against Escherichia coli AID#172 in the peritonitis model in neutropenic NMRI mice to avoid the use of mucin as normally applied in the murine peritonitis model. The mice were rendered neutropenic by cyclophosphamide injections. Treatment with 40 mg/kg meropenem was included as a positive control group and treatment with vehicle was included as a negative control group. The colony counts in peritoneal fluid and blood were determined at 2 and 5 hours after treatment.
• 30 outbred, NMRI female mice, 28-32 grams (Harlan Scandinavia) • Escherichia coli AID#172 from Statens Serum Institute, Copenhagen, Denmark. Clinical isolate from a human wound from 2003. Multiresistant (Ampicillin, Ceftazidime, Aztreonam, Gentamicin, Ciprofloxacin) • NZ17074 in Ringer Acetate pH 6, 1.2 ml 0.75 mg/ml. […] Lot no. 09466C Date of expiration: 08-2013 • APODAN®(A-Pharma, 1 g cyclophosphamide) Batch nr. 928491 • Date of expiration: May 2012 • Water, sterile • 0.9% saline, sterile • 5% Horse Blood Agar plates • Lactose bromthymol blue agar plates
The mice were rendered neutropenic by injecting 0.5 ml cyclophosphamide solution intraperitoneally 4 days (200 mg/kg) and 1 day (100 mg/kg) prior to inoculation.
Fresh overnight E. coli AID#172 colonies from a 5% Horse Blood Agar plate were suspended and diluted in sterile saline to approximately 2×10^6CFU/ml.
One hour before start of treatment (time −1 hour) mice were inoculated intraperitoneally with 0.5 ml of the E. coli suspension in the lateral lower quadrant of the abdomen.
The mice were clinically scored for signs of infection at the time of each sampling. • Score 0: Healthy. • Score 1: Minor clinical signs of infection and inflammation e.g. observations of minor signs of distress or changed activity. • Score 2: Clear signs of infection like, social withdrawal, lack of curiosity, changed body position, piloerection, or changes in pattern of movement. • Score 3: Severe signs of infection like stiff movements, lack of curiosity, forced ventilation, changed body position, piloerection, pain, or changes in pattern o movement. • Score 4: Severe pain and the mouse was sacrificed immediately to minimize the suffering of the animal. • Score 5: The mouse was dead.
The mice were treated i.v. in the lateral tail vein over approximately 30 seconds with a single dose of NZ17074, meropenem or vehicle at time 0 hour (see Table 1). The dosing was based on a mean weight of 30 g. Mice that weighed 28-32 g received 0.30 ml solution. Mice that weighed 27-28 g received 0.25 ml solution and mice that weighed 32.1-36 g received 0.35 ml solution. Mouse 17 accidently received 0.35 ml although it weighed 29.5 g.
Colony counts were determined from blood and peritoneal fluid at 0, 2 and 5 hours after treatment according to Table 1.
The mice were anesthetized with O2+CO2 and blood was collected by axilliary cut down. The mice were sacrificed by cervical dislocation and a total of 2 ml sterile saline was injected i.p. and the abdomen gently massaged before it was opened and fluid sampled with a pipette. Each sample was 10 fold diluted in saline and 20-microliter spots were applied on blood agar plates. All agar plates were incubated 18-22 hours at 35° C. in ambient air.
The CFU numbers are log10 transformed before performing calculations to obtain a normal distribution.

[1] abbreviates: Meropenem 40 mg/kg single dose, sampling T = 2, individual mice.
Where [2] appears, read: Meropenem 40 mg/kg single dose, sampling T = 5, p < 0.01 vs vehicle.
The mark [3] stands for this setting: Meropenem 40 mg/kg single dose, sampling T = 5, individual mice.
Where [4] appears, read: Meropenem 40 mg/kg single dose, individual mice.

As to `C[C@@H](O)[C@H]1C(=O)N2C(C(=O)O)=C(S[C@@H]3CN[C@H](C(=O)N(C)C)C3)[C@H](C)[C@H]12` [meropenem], where the note is “40 mg/kg i.v., 2 hours after treatment”, the “CFU levels compared to vehicle, blood” value is recorded as “lack of significance”. Also, the “CFU levels compared to vehicle” value is “significantly (p<0.01) reduced CFU levels” (40 mg/kg i.v.) and “significant reduction” (40 mg/kg i.v., listed as Meropenem). For the same molecule, the “difference in CFU levels compared to vehicle treatment, blood” value was “blood −0.82 log log cfu/ml” (2 hours) and “blood −1.64 log log cfu/ml” (5 hours). Moreover, the “difference in CFU levels compared to vehicle treatment, peritoneum” value (2 hours) was 2 hours: peritoneum −1.51 log cfu/ml and the “difference in CFU levels compared to vehicle treatment, peritoneum” value (5 hours) is recorded as 5 hours: peritoneum −1.51 log cfu/ml. The “Score T = 0 hour” value by setting is: (Meropenem 40 mg/kg single dose, group sampled T = 2, individual mice) 0; (Meropenem 40 mg/kg single dose, group sampled T = 5, individual mice) 0. Further, the “log10 CFU Mean Blood” value (Meropenem 40 mg/kg single dose, sampling T = 2, not significant vs vehicle) is on record as 3.76 log10 CFU and the “log10 CFU Mean Blood” value under setting [2] is given as 3.10** log10 CFU. Further, the “log10 CFU Blood” value is, setting by setting: under setting [1], 3.60 log10 CFU and 3.57 log10 CFU and 4.11 log10 CFU; under setting [3], 3.20 log10 CFU and 2.85 log10 CFU and 3.26 log10 CFU. For the same molecule, the “Score T = 2 hours” value under setting [4] was 1. Further, the “Score T = 5 hours” value under setting [4] was 0. Further, the “log10 CFU mean PF” value is, setting by setting: (Meropenem 40 mg/kg single dose, sampling T = 2, p < 0.01 vs vehicle) 3.92** log10 CFU; under setting [2], 4.21** log10 CFU. Moreover, the “log10 CFU PF” value is 4.12 log10 CFU and 3.40 log10 CFU and 4.24 log10 CFU under setting [1]; 4.38 log10 CFU and 4.00 log10 CFU and 4.26 log10 CFU under setting [3].
